Tests used:
[1] = test system: SUM149 BRCA1mut (parental) cells; assay: Cell viability assay, SUM149 BRCA1mut (parental) cells; assay type: cell-based, human; settings: 8 days
Experimental: (§1) For analysis of cell viability following exposure to olaparib (Selleckchem), deoxyribonucleosides and DNPH1i (N6-benzyladenosine, Carbosynth), cells were seeded in 96-well plates at a density of 100-500 cells per well. Twenty-four hours post-seeding, drug treatments were initiated, and cells were continuously exposed until termination of the experiment. Cell viability was measured using CellTiter-Glo (Promega). The surviving fractions were measured, and drug sensitivity curves were plotted using GraphPad Prism. The following nucleosides were purchased from commercial sources: dU (2′-deoxyuridine), hdU (5-hydroxy-2′-deoxyuridine), hmdU (5-hydroxymethyl-2′-deoxyuridine), mdC (5-methyl-2′-deoxycytidine), hmdC (5-hydroxymethyl-2′-deoxycytidine), cadC (5-carboxy-2-deoxycytidine), fodC (5-formyl-2-deoxycytidine), dl (2′-deoxyinosine), dX (2′-deoxyxanthosine), 8odG (8-oxo-2′-deoxyguanosine), hmU (5 hydroxymethyluridine), hmC (5-hydroxymethyl-cytidine). fodU (5-formyl-2′-deoxyuridine) was synthesized as previously described (Guo et al Org. Biomol. Chem. 11, 1610-1613 (2013).

[2] = test system: eHAP MUS81−/−DNPH1−/− cells; assay: Cell viability assay (CellTiter-Glo), eHAP MUS81−/−DNPH1−/− cells; assay type: cell-based, human; settings: nucleoside 200 nM, 6 days, vs MUS81 k/o
Experimental: as §1

[3] = test system: eHAP WT and DNPH1 k/o cells; assay: Nucleoside composition of genomic DNA by LC-MS; assay type: cell-based, human; settings: cells treated with exogenous hmdU; DNPH1 k/o vs WT
Experimental: Cells (5×10^7) were collected and DNA extracted using Gentra Puregene Cell Kit (Qiagen) supplemented with RNAse (Qiagen) and 100 mM tetrahydrouridine (Merck). DNA was digested to mononucleosides by modification of a published protocol (41). Briefly, reactions were carried out in […] buffer containing […] DNA, 50 mM Tris pH 9.0, 20 mM NaCl, 5 mM MgCl2, 1 kU Benzonase, 1 U phosphodiesterase I and 10 U FastAP alkaline phosphatase for 48 hrs at 37° C. The samples were then precipitated with chloroform and labelled standards of deoxyadenosine (dA), deoxycytidine (dC), deoxyguanosine (dG) and deoxythymidine (dT) were spiked for normalization of the signal response from modified deoxynucleosides. Polar phases were analyzed by LC-MS/MS using a using a reverse phase column (100×2.1 mm, 3 μm, Fortis C18, Fortis Technologies) on a Dionex UltiMate LC system coupled to a TSQ Quantiva™ Triple Quadrupole (Thermo Scientific) mass spectrometer with a HESI 11 (heated electrospray ionization) source. The mobile phases consisted of water containing 0.1% acetic acid (mobile phase A) and acetonitrile (mobile phase B). A gradient of 12 min 0-12% B and 1 min 12-60% B was used for the separation of all the modified nucleosides. […]

[4] = test system: BRCA2/DNPH1 double knock-out cell lines (DLD1); assay: Cell viability assay, DLD1 BRCA2/DNPH1 double knock-out cells; assay type: cell-based; settings: absence of a PARP inhibitor; two independent double knock-out lines
Experimental: as §1

DLD1 BRCA2−/− cells = assay: Cell viability assay, DLD1 BRCA2−/− cells; assay type: cell-based; settings: olaparib 10 nM or hmdU 2 μM, 10 days
Experimental: as §1

[5] = test system: DLD1 WT, BRCA2 and DNPH1 single knock-out cell lines; assay: Cell viability assay, DLD1 WT and single knock-out cells; assay type: cell-based; settings: highest dose tested
Experimental: as §1

[6] = test system: SUM149 WT (revertant) cells; assay: Cell viability assay, SUM149 WT (revertant) cells; assay type: cell-based, human; settings: hmdU with DNPH1i 0.5 μM or olaparib, 8 days
Experimental: as §1

[7] = test system: SUM149 BRCA1mut/53BP1−/− cells; assay: Cell viability assay, SUM149 BRCA1mut/53BP1−/− cells; assay type: cell-based, human; settings: PARPi-resistant cells; hmdU 2 μM + olaparib; ratio of EC50 values
eHAP MUS81−/− cells = assay: Cell viability assay (CellTiter-Glo), eHAP MUS81−/− cells; assay type: cell-based, human; settings: single agent
Experimental: as §1

[8] = test system: SUM149 BRCA1mut/PARP1−/− cells; assay: Cell viability assay, SUM149 BRCA1mut/PARP1−/− cells; assay type: cell-based, human; settings: PARPi-resistant cells; hmdU 2 μM + olaparib; ratio of EC50 values
DCTD k/o cell lines = assay: Cell viability, DCTD k/o cell lines; assay type: cell-based
Experimental: as §1

[9] = test system: PARP1 chromatin association in eHAP SMUG1−/− cells; assay: PARP trapping assay (chromatin fractionation), eHAP SMUG1−/− cells; assay type: cell-based, human; settings: MMS 0.01% then olaparib 10 μM 4 h
Experimental: Briefly, 500.000 cells were seeded onto six-well plates, and treated with 350 nM hmdU or 0.01% MMS for 24 hours at which point cells were either left untreated or treated with 10 μM olaparib for 4 h. Cells were fractionated with the Subcellular Protein Fractionation kit for Cultured Cells (ThermoFisher #78840) according to the manufacturer's instructions. Soluble and chromatin fractions were analysed by immunoblotting for PARP1 (Cell Signaling #9542, rabbit) and yH2AX (Millipore, JBW301) antibodies. Incubation with primary antibody was followed by incubation with a horseradish peroxidase-conjugated secondary antibody and chemiluminescent detection of proteins (Amersham Pharmacia, Cardiff, UK).

Structure (SMILES)	synthetic lethality of hmdU with DNPH1 inhibition ([1]; DNPH1i 0.5 μM)	expansion of the therapeutic window of olaparib by addition of hmdU ([1]; hmdU 2 μM + olaparib vs olaparib alone, ratio of EC50 values revertant vs BRCA1mut)	effect on viability, agent alone ([1]; olaparib 250 nM or hmdU 2 μM)	sensitivity of MUS81/DNPH1 k/o cells to nucleoside treatment (cell viability) [2]	increase in genomic hmdU in DNPH1 k/o cells after hmdU treatment [3]	cells killed by hmdU [4]	effect on viability, agent alone (DLD1 BRCA2−/− cells)	sensitivity to hmdU [5]	effect of treatment on isogenic WT cells [6]	expansion of the therapeutic window of olaparib by hmdU [7]	effect on viability, agent alone (eHAP MUS81−/− cells)	expansion of the therapeutic window of olaparib by hmdU [8]	resistance of DCTD k/o cells to nucleoside treatment (DCTD k/o cell lines)	difference in PARP trapping or DNA damage signaling between WT and SMUG1-deficient cells [9]
O=c1[nH]c(=O)n([C@H]2C[C@H](O)[C@@H](CO)O2)cc1CO [hmdU, 5-hydroxymethyl-2′-deoxyuridine]	to the same extent as Olaparib alone	4 fold	limited effect on viability	hypersensitive	3 fold	over 95%	limited effect on viability	resistant to the highest dose tested	unaffected	3 fold	no effect on viability	3 fold	not	–
COS(C)(=O)=O [MMS, methyl methanesulfonate]	–	–	–	–	–	–	–	–	–	–	–	–	–	did not observe any difference

From patent US20220339179A1, “TREATMENT OF HR DEFICIENT CANCER” (THE FRANCIS CRICK INSTITUTE LIMITED, priority 2019, published 2022)
